By IC50 is commonly meant the point on the concentration scale where inhibition reaches its midpoint. A higher IC50 goes with a need for much substance.

A short description of assay [1]: Inhibition of insulin receptor mediated mitogenesis of NIH3T3 cells.
A short description of assay [2]: Inhibition of Epidermal growth factor receptor mediated mitogenesis of NIH3T3 cells.

Take `COc1ccc(Cc2nc(NC3=NC(=O)N(C)C3=O)n(C)c2Cc2ccc(O)cc2)cc1` [4-(5-(4-hydroxybenzyl)-4-(4-methoxybenzyl)-1-methyl-1H-imidazol-2-ylamino)-1-methyl-1H-imidazole-2,5-dione]: the results for the IC50 in assay [1] and in assay [2] were 242 µM and 11.3 µM, respectively.
As to `COc1ccc(Cc2cn(Cc3ccc(OC)cc3)c(NC3=NC(=O)N(C)C3=O)n2)cc1` [5-[1,4-Bis-(4-methoxy-benzyl)-1H-imidazol-2-ylamino]-3-methyl-imidazole-2,4-dione], the IC50 in assay [1] was determined as 6.7 µM; in assay [2] it was 36.9 µM.
The corresponding values for `COc1ccc(Cc2cn(Cc3ccc(O)cc3)c(NC3=NC(=O)N(C)C3=O)n2)cc1` [5-[1-(4-Hydroxy-benzyl)-4-(4-methoxy-benzyl)-1H-imidazol-2-ylamino]-3-methyl-imidazole-2,4-dione] are 9.8 µM and 22.7 µM.

The values are drawn from BindingDB's records for doi:10.1021/jm980294n (University of Utah, 1998).
